The values that follow come from ChEMBL document CHEMBL1145284, “Combined target-based and ligand-based drug design approach as a tool to define a novel 3D-pharmacophore model of human A3 adenosine receptor antagonists: pyrazolo[4,3-e]1,2,4-triazolo[1,5-c]pyrimidine derivatives as a key study” (J Med Chem, 2005).

The assay has as its target T1, Adenosine receptor A3 (Homo sapiens, UniProt P0DMS8).
T1 sequence (P0DMS8 whole entry): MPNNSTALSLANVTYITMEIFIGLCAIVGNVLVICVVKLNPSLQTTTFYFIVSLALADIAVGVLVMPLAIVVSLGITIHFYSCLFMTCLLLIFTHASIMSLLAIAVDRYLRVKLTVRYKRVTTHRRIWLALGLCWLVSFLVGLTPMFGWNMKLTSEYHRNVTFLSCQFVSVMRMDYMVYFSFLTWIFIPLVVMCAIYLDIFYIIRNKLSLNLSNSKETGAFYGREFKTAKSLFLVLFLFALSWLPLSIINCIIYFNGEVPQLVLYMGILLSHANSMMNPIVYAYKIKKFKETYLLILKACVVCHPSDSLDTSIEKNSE
Description: Binding affinity for human adenosine A3 receptor
The Ki is a measure of affinity in units of concentration, obtained from inhibition or displacement. The low end stands for tighter binding, the high end for weaker binding. Compound `CC(C)=CCn1cc2c(nc(N)n3nc(-c4ccco4)nc23)n1` yielded a Ki of 0.811 µM.

`CCCCCCCCn1cc2c(nc(NC(=O)Nc3ccc(C)cc3)n3nc(-c4ccco4)nc23)n1` registered a Ki of 0.00448 µM.

For the compound `CC(C)(C)NC(=O)Nc1nc2nn(CCc3ccccc3)cc2c2nc(-c3ccco3)nn12`, the affinity corresponds to a Ki of 0.0049 µM.

In turn, `CC(C)CCn1cc2c(nc(NC(=O)NC(C)(C)C)n3nc(-c4ccco4)nc23)n1` gave a Ki of 0.039 µM.

In turn, `Cc1ccc(NC(=O)Nc2nc3nn(CCC(C)C)cc3c3nc(-c4ccco4)nn23)cc1` showed a Ki of 0.00741 µM.

On to `CCOC(=O)Cc1ccc(NC(=O)Nc2nc3nn(C)cc3c3nc(-c4ccco4)nn23)cc1`, for which the Ki is 0.00082 µM.

Consider `O=C(Nc1nc2nn(CC3CCCCC3)cc2c2nc(-c3ccco3)nn12)NC1CCCCC1`, for which the affinity corresponds to a Ki of 0.0067 µM.

With `NCC(=O)Nc1nc2nn(CCc3ccccc3)cc2c2nc(-c3ccco3)nn12`, the Ki worked out at 0.163 µM.

The compound `CCCCCCCCn1cc2c(nc(NC(=O)NCCCCC)n3nc(-c4ccco4)nc23)n1` displayed an inhibition constant Ki of 0.00783 µM.

The compound `CC(C)CCn1cc2c(nc(NC(=O)CCCN)n3nc(-c4ccco4)nc23)n1` came in with a Ki of 0.09 µM.

For the compound `CC(C)(C)NC(=O)Nc1nc2nn(CCCc3ccccc3)cc2c2nc(-c3ccco3)nn12`, the affinity, expressed as Ki, was 0.065 µM.

Consider `CCCCCCCCn1cc2c(nc(NC(=O)Nc3ccc(CC(=O)OCC)cc3)n3nc(-c4ccco4)nc23)n1`, for which the affinity, expressed as Ki, was 0.00997 µM.

As for `CCCCCNC(=O)Nc1nc2nn(CC3CCCCC3)cc2c2nc(-c3ccco3)nn12`, the Ki was 0.00398 µM.

For `CCOC(=O)Cc1ccc(NC(=O)Nc2nc3nn(CC4CCCCC4)cc3c3nc(-c4ccco4)nn23)cc1`, the Ki was 0.00695 µM.

In turn, `Nc1nc2nn(CC3CCCCC3)cc2c2nc(-c3ccco3)nn12` returned a Ki of 1.72 µM.

In the case of `CC(C)CCn1cc2c(nc(NC(=O)NC(C)C)n3nc(-c4ccco4)nc23)n1`, the affinity, expressed as Ki, was 0.065 µM.

Compound `CCCCCCCCn1cc2c(nc(NC(=O)NC3CCCCC3)n3nc(-c4ccco4)nc23)n1` gave a Ki of 0.0163 µM.

For `CCCn1cc2c(nc(NC(=O)NC(C)(C)C)n3nc(-c4ccco4)nc23)n1`, the Ki was 0.015 µM.

Compound `Cc1ccc(NC(=O)Nc2nc3nn(CC4CCCCC4)cc3c3nc(-c4ccco4)nn23)cc1` yielded a Ki of 0.00594 µM.

Take `CC(C)(C)OC(=O)NCCCC(=O)Nc1nc2nn(CCc3ccccc3)cc2c2nc(-c3ccco3)nn12`: the Ki was found to be 1.48 µM.

In turn, `CCCCCCCCn1cc2c(nc(N)n3nc(-c4ccco4)nc23)n1` registered a Ki of 2.05 µM.

With `CC(C)CCn1cc2c(nc(NC(=O)NC3CCCCC3)n3nc(-c4ccco4)nc23)n1`, the affinity corresponds to a Ki of 0.0205 µM.

In turn, `CC(C)NC(=O)Nc1nc2nn(CCc3ccccc3)cc2c2nc(-c3ccco3)nn12` showed a Ki of 0.009 µM.

`CCCCCNC(=O)Nc1nc2nn(C)cc2c2nc(-c3ccco3)nn12` came in with a Ki of 0.00195 µM.

`CCCCCNC(=O)Nc1nc2nn(CCC(C)C)cc2c2nc(-c3ccco3)nn12`: the affinity, expressed as Ki, was 0.00809 µM.

`NCCCC(=O)Nc1nc2nn(CCc3ccccc3)cc2c2nc(-c3ccco3)nn12`: the Ki is 0.065 µM.

`NCCC(=O)Nc1nc2nn(CCc3ccccc3)cc2c2nc(-c3ccco3)nn12`: the affinity, expressed as Ki, was 0.08 µM.

On to `CCOC(=O)Cc1ccc(NC(=O)Nc2nc3nn(CCC(C)C)cc3c3nc(-c4ccco4)nn23)cc1`, for which the affinity corresponds to a Ki of 0.0119 µM.

`CC(C)NC(=O)Nc1nc2nn(CCCc3ccccc3)cc2c2nc(-c3ccco3)nn12` displayed a Ki of 0.055 µM.

`CC(C)CCn1cc2c(nc(NC(=O)CCCNC(=O)OC(C)(C)C)n3nc(-c4ccco4)nc23)n1` registered a Ki of 2.49 µM.

On to `CCCn1cc2c(nc(NC(=O)NC(C)C)n3nc(-c4ccco4)nc23)n1`, for which the Ki was found to be 0.021 µM.
